Assay results from US11826399B2, “Chlorotoxin agents and uses thereof” (Eisai Inc., priority 2017, dated 2023).
Where “and” joins values, the source holds several entries; their conditions need not be identical. Identical values can stand only once.

Experiment: Plasma and tissue distribution of Cryptophycin Payload and Cryptophycin Metabolite 1 after Cryptophycin Payload alone or with CTX in PC-3 xenograft nude mice (LC-MS/MS)
Assay type: in vivo, mouse
Procedure: For the present experiment, materials, methods, drugs and model were as described in Example 21. […] Following intravenous administration, whole blood samples were collected at predetermined time points via cardiac puncture (n=3 mice per time point). Blood samples were centrifuged to obtain plasma and subsequently stored at […] or lower pending analysis. Additionally, at each time point, kidney, liver, small intestine, brain, heart, and tumor were harvested by removing entire specimen from surrounding tissues (only a portion of liver and small intestine were removed). After removal, tissues were rinsed with normal saline solution (contents of small intestine were emptied) and blotted dry with clean adsorptive tissue. Once dried, the specimens were weighed and stored at −20° C. or lower pending analysis. […] Pharmacokinetic (PK) parameters were calculated. Mean plasma and tissue concentrations were used to calculate mean PK parameters. Skin and skeletal muscle which were not assessed due to difficulty of homogenization.
Vehicle for single dose group was 10% ethanol, 5% Tween 80, 85% saline. Vehicle for combination treatment was 5% ethanol, 2.5% Tween 80, 92.5% saline.

[1] = Payload 0.4 mg/kg + CTX 16 mg/kg IV, 24 h
[2] = Payload 0.4 mg/kg IV alone, 0.083 h
[3] = Payload 0.4 mg/kg IV alone, 0.5 h
[4] = Payload 0.4 mg/kg IV alone, 1 h
[5] = Payload 0.4 mg/kg IV alone, 2 h
[6] = Payload 0.4 mg/kg IV alone, 6 h
[7] = Payload 0.4 mg/kg IV alone, 24 h
[8] = Plasma, Payload 0.4 mg/kg + CTX 16 mg/kg IV
[9] = Plasma, Payload 0.4 mg/kg IV alone
[10] = Small Intestine, Payload 0.4 mg/kg + CTX 16 mg/kg IV
[11] = Small Intestine, Payload 0.4 mg/kg IV alone
[12] = Tumor, Payload 0.4 mg/kg + CTX 16 mg/kg IV
[13] = Tumor, Payload 0.4 mg/kg IV alone

SMILES: CCCCNC(=O)Cc1ccccc1SSC(C)(C)CCN1CCN(Cc2ccc(C3OC3C(C)C3CC=CC(=O)NC(Cc4ccc(OC)c(Cl)c4)C(=O)NCC(C)(C)C(=O)NC(CC(C)C)C(=O)O3)cc2)CC1 (stereo not shown) [Cryptophycin Payload]
- Concentration of Cryptophycin Payload, Kidney, Mean [1]: 3.39 ng/g
- Concentration of Cryptophycin Payload, Liver, Mean [1]: BLQ
- Concentration of Cryptophycin Payload, Plasma, Mean [1]: BLQ
- Concentration of Cryptophycin Payload, Small Intestine, Mean [1]: BLQ
- Concentration of Cryptophycin Payload, Tumor, Mean [1]: BLQ
- Concentration of Cryptophycin Payload, Brain, Mean [2]: 8.32 ng/g
- Concentration of Cryptophycin Payload, Heart, Mean [2]: 63.2 ng/g
- Concentration of Cryptophycin Payload, Kidney, Mean [2]: 533 ng/g
- Concentration of Cryptophycin Payload, Liver, Mean [2]: 6.02 ng/g
- Concentration of Cryptophycin Payload, Plasma, Mean [2]: 493 ng/mL
- Concentration of Cryptophycin Payload, Small Intestine, Mean [2]: 53.3 ng/g
- Concentration of Cryptophycin Payload, Tumor, Mean [2]: 11.6 ng/g
- Concentration of Cryptophycin Payload, Brain, Mean [3]: 1.42 ng/g
- Concentration of Cryptophycin Payload, Heart, Mean [3]: 18.9 ng/g
- Concentration of Cryptophycin Payload, Kidney, Mean [3]: 320 ng/g
- Concentration of Cryptophycin Payload, Liver, Mean [3]: 1.92 ng/g
- Concentration of Cryptophycin Payload, Plasma, Mean [3]: 36.3 ng/mL
- Concentration of Cryptophycin Payload, Small Intestine, Mean [3]: 13.6 ng/g
- Concentration of Cryptophycin Payload, Tumor, Mean [3]: 4.11 ng/g
- Concentration of Cryptophycin Payload, Brain, Mean [4]: 0.673 ng/g
- Concentration of Cryptophycin Payload, Heart, Mean [4]: 7.91 ng/g
- Concentration of Cryptophycin Payload, Kidney, Mean [4]: 158 ng/g
- Concentration of Cryptophycin Payload, Liver, Mean [4]: 3.32 ng/g
- Concentration of Cryptophycin Payload, Plasma, Mean [4]: 11.0 ng/mL
- Concentration of Cryptophycin Payload, Small Intestine, Mean [4]: 6.55 ng/g
- Concentration of Cryptophycin Payload, Tumor, Mean [4]: 2.14 ng/g
- Concentration of Cryptophycin Payload, Brain, Mean [5]: 0.436 ng/g
- Concentration of Cryptophycin Payload, Heart, Mean [5]: 3.28 ng/g
- Concentration of Cryptophycin Payload, Kidney, Mean [5]: 93.8 ng/g
- Concentration of Cryptophycin Payload, Liver, Mean [5]: 1.29 ng/g
- Concentration of Cryptophycin Payload, Plasma, Mean [5]: 5.30 ng/mL
- Concentration of Cryptophycin Payload, Small Intestine, Mean [5]: 6.41 ng/g
- Concentration of Cryptophycin Payload, Tumor, Mean [5]: 2.41 ng/g
- Concentration of Cryptophycin Payload, Brain, Mean [6]: BLQ
- Concentration of Cryptophycin Payload, Heart, Mean [6]: 0.885 ng/g
- Concentration of Cryptophycin Payload, Kidney, Mean [6]: 20.4 ng/g
- Concentration of Cryptophycin Payload, Liver, Mean [6]: 0.948 ng/g
- Concentration of Cryptophycin Payload, Plasma, Mean [6]: 0.492 ng/mL
- Concentration of Cryptophycin Payload, Small Intestine, Mean [6]: 2.17 ng/g
- Concentration of Cryptophycin Payload, Tumor, Mean [6]: 1.03 ng/g
- Concentration of Cryptophycin Payload, Brain, Mean [7]: BLQ
- Concentration of Cryptophycin Payload, Heart, Mean [7]: BLQ
- Concentration of Cryptophycin Payload, Kidney, Mean [7]: 3.79 ng/g
- Concentration of Cryptophycin Payload, Liver, Mean [7]: BLQ
- Concentration of Cryptophycin Payload, Plasma, Mean [7]: BLQ
- Concentration of Cryptophycin Payload, Small Intestine, Mean [7]: 2.31 ng/g
- Concentration of Cryptophycin Payload, Tumor, Mean [7]: 0.335 ng/g
- AUC(0-inf) of Cryptophycin Payload [8]: 129 ng·h/mL
- AUC(0-t) of Cryptophycin Payload [8]: 128 ng·h/mL
- CL of Cryptophycin Payload [8]: 51.8 mL/min/kg
- Vss of Cryptophycin Payload [8]: 2.28 L/kg
- t1/2 of Cryptophycin Payload [8]: 50.9 min
- AUC(0-inf) of Cryptophycin Payload [9]: 154 ng·h/mL
- AUC(0-t) of Cryptophycin Payload [9]: 153 ng·h/mL
- CL of Cryptophycin Payload [9]: 43.3 mL/min/kg
- Vss of Cryptophycin Payload [9]: 1.15 L/kg
- t1/2 of Cryptophycin Payload [9]: 67.8 min
- AUC(0-inf) of Cryptophycin Payload [10]: 36.4 ng·h/g
- AUC(0-t) of Cryptophycin Payload [10]: 34.9 ng·h/g
- t1/2 of Cryptophycin Payload [10]: 76.2 min
- tmax of Cryptophycin Payload [10]: 4.8 min
- TPI of Cryptophycin Payload (Small Intestine, Payload 0.4 mg/kg + CTX 16 mg/kg IV, AUC0-inf tissue/AUC0-inf plasma): 0.282 mL/g
- AUC(0-t) of Cryptophycin Payload [11]: 81.6 ng·h/g
- tmax of Cryptophycin Payload [11]: 4.98 min and 4.8 min
- TPI of Cryptophycin Payload (Small Intestine, Payload 0.4 mg/kg IV alone, AUC0-6 h tissue/AUC0-6 h plasma): 0.268 mL/g and 0.268^c mL/g
- AUC(0-t) of Cryptophycin Payload [12]: 42.7 ng·h/g
- tmax of Cryptophycin Payload [12]: 4.8 min
- TPI of Cryptophycin Payload (Tumor, Payload 0.4 mg/kg + CTX 16 mg/kg IV, AUC0-6 h tissue/AUC0-6 h plasma): 0.334 mL/g and 0.334^c mL/g
- AUC(0-inf) of Cryptophycin Payload [13]: 28.8 ng·h/g
- AUC(0-t) of Cryptophycin Payload [13]: 24.9 ng·h/g
- t1/2 of Cryptophycin Payload [13]: 506 min
- tmax of Cryptophycin Payload [13]: 4.98 min and 4.8 min
- TPI of Cryptophycin Payload (Tumor, Payload 0.4 mg/kg IV alone, AUC0-inf tissue/AUC0-inf plasma): 0.187 mL/g
